pKd: −log10 of the molar value. “Also recorded” adds a separate entry of the source.
Key:
[1] = target: full-length human Acot12 (Homo sapiens, UniProt Q8WYK0); experiment: biochemical
Protocol: (§2) Reaction labeling recombinant full-length Them1, Them1l-ΔSTART, START or Acot12 with Monolith RED-Tris-NTA (NanoTemper Technologies; San Francisco, CA) were performed according to the manufacturer's instructions in buffer containing PBS plus 0.5% Tween-20 for 60 min at 22° C. with a molar dye: protein ratio=1:1. […] Working concentrations of compounds were prepared by diluting in microscale thermophoresis buffer. Reactions consisting of 100 nM of fluorescently labeled recombinant protein (full-length Them1, Them1-ΔSTART, START or Acot12) and compounds were loaded onto standard Monolith NT.115 Capillaries (NanoTemper Technologies; San Francisco, CA). Fluorescence was measured using a Monolith NT.115 instrument (NanoTemper Technologies; San Francisco, CA) at 22° C. with instrument parameters adjusted to 40% LED power and medium microscale thermophoresis power. Data were fitted by non-linear regression in GraphPad Prism (GraphPad Software; San Diego, CA).

[2] = test system: primary hepatocytes; experiment: Glucose production in primary hepatocytes; format: cell-based, mouse; conditions: compound 33 μM, pyruvate 2 mM, lactate 20 mM
Protocol: (§1) Primary hepatocytes cultured were prepared from 6- to 14-w old wild type, L-Them1Tg and Them1^−/− mice following anesthesia with ketamine and xylazine. Livers were perfused through the portal vein with 20 mL of liver perfusion medium (Thermo Fisher; Walham, MA) followed by 40 mL of liver digestion medium (Thermo Fisher; Walham, MA). Primary hepatocytes were gently disrupted from the liver capsule into hepatocyte wash medium (Thermo Fisher; Waltham, MA), filtered through a 70 μm cell strainer and then spun down at 30×g for 4 min at 4° C. Primary hepatocytes were cultured in William's Medium E (Thermo Fisher; Waltham, MA) supplemented with 1% penicillin/streptomycin and 10% fetal bovine serum. […] Cultured primary hepatocytes were maintained in a cell culture incubator at 37° C. with 5% CO2.
Rates of glucose production were determined as previously described with modifications (Kawano et al., 2014). Primary hepatocytes cultured from wild type, L-Them1Tg and Them1^−/' mice were serum-starved in Medium 199 (Thermo Fisher; Waltham, MA) for 16 h and then washed twice with PBS. […] Glucose concentrations in the media were measured enzymatically through a commercial kit according to the manufacturer's instructions using a NEO plate reader (BioTek, Winooski, VT).

[3] = test system: primary hepatocytes; experiment: Oxygen consumption rates (OCR) in primary hepatocytes after palmitate; format: cell-based, mouse; conditions: compound 33 μM, palmitate-BSA 300 μM
Protocol: as §1
In primary hepatocytes, values of OCR were measured using a Seahorse XF24 extracellular flux analyzer (Agilent Technologies; Santa Clara, CA). […] OCR values were measured before and after the exposure of cells to palmitic acid conjugated with fatty acid-free BSA (300 μM) and normalized with total live cell count calculated through staining with NucRed Live probe (Thermo Fisher; Waltham, MA) measured at 715 nm emission and 623 nm excitation using a SpectraMax i3X plate reader (Molecular Devices; San Jose; CA).

[4] = target: T1, Them1-ΔSTART (Homo sapiens, UniProt Q8WXI4); experiment: Microscale thermophoresis binding, Them1-ΔSTART; conditions: for binding to Them1-ΔSTART: in words; for pKd: read-out: Kd, Thioesterase domains (Them1-ΔSTART ), MST, 100 nM labeled protein, 22° C.
T1 sequence (Q8WXI4 43-329 isoform Q8WXI4-2 limits assumed): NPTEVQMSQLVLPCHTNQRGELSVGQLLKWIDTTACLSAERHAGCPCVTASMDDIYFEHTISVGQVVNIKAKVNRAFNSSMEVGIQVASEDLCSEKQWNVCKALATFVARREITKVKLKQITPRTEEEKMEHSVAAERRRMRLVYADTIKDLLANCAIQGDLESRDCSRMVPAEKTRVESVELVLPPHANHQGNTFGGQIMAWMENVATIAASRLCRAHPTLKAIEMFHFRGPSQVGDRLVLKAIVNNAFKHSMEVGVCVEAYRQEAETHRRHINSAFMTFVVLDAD
Protocol: (§3) Data represent the mean (s.e.m.) of triplicate determinations. Where not visible, error bars are contained within the symbol sizes.
as §2

[5] = target: T2, recombinant mouse Them1 (Mus musculus, UniProt Q8VHQ9); experiment: Acot activity assay, mouse Them1; format: biochemical; conditions: in words (FIG. 6B)
T2 construct: made in house; host or cells: E. coli BL21 (DE3)
T2 sequence (Q8VHQ9 21-594): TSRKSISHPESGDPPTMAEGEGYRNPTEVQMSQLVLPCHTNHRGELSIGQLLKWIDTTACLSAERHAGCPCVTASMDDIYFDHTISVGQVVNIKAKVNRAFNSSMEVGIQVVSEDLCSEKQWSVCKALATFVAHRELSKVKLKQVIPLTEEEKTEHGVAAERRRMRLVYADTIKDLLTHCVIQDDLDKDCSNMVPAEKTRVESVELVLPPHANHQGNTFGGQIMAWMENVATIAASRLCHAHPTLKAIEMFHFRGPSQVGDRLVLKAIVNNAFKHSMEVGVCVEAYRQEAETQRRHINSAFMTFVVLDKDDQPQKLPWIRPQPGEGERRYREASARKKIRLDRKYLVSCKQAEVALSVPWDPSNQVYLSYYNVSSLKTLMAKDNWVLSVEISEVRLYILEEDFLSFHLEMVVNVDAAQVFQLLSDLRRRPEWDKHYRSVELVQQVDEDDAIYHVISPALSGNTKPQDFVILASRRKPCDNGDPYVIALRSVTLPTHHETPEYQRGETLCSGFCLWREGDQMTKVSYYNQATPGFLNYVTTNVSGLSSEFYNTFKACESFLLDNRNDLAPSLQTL
Description: (Zhang et al., 1999). Values are show in the following Table.

[6] = in vitro; conditions: C57BL/6, mouse, primary brown adipocytes
Protocol: Cytotoxicities of compounds were determined using a CellTiter-Glo® Luminescent Cell Viability Assay, which measures concentrations of ATP liberated from viable cells (Promega; Madison, WI). […] Tamoxifen (50 μM) was used as a (+) control. CellTiter-Glo reagent (10 μL) was added to each well and incubated on an orbital shaker for 10 min at 22° C. to induce cell lysis and stabilize the luminescent signal. Relative luminescent units (RLU) were determined using a NEO plate reader (BioTek, Winooski, VT).

[7] = test system: primary brown adipocytes cultured from A-Them1Tg mice; experiment: Oxygen consumption rates (OCR) in primary brown adipocytes; format: cell-based, mouse
Protocol: Primary brown adipocytes from 4- to 6-w old wild type and A-Them1Tg mice were isolated, cultured and differentiated as described (Okada et al., 2016). In brief, BAT tissues harvested from 5- to 7-w old mice were pooled, minced and digested with collagenase B (Sigma-Aldrich; St. Louis, MO), and dispersed in growth medium [DMEM/F12 containing 4.5 g/L glucose, 0.1 mM pyruvate, 10 mM HEPES (Thermo Fisher; Waltham, MA) supplemented with 1% penicillin/streptomycin, 1% GlutaMAX (Thermo Fisher; Waltham, MA) and 20% fetal bovine serum]. […] Upon achieving confluence, pre-adipocytes were induced to differentiate for 8 d by culturing for the first 48 h in differentiation medium [DMEM/F12 containing 4.5 g/L glucose, 0.1 mM pyruvate, 10 mM HEPES (Thermo Fisher; Waltham, MA) supplemented with 1% penicillin/streptomycin, 1% GlutaMAX (Thermo Fisher; Waltham, MA), 10% fetal bovine serum, bovine insulin (5 μg/mL; Thermo Fisher; Waltham, MA) and rosiglitazone (1 μM; Sigma Aldrich; St. Louis, MO)] supplemented with dexamethasone (5 μM; Sigma Aldrich; St. Louis, MO) and 3-isobutyl-1-methylxanthine (0.5 mM; Sigma Aldrich; St. Louis, MO) and differentiation medium thereafter. On differentiation d 6 to 8, the adipocyte differentiation media was supplemented with L-(−)-norepinephrine (+) bitartrate (Calbiochem; EMD Millipore; Billerica, MA). Primary brown adipocytes were maintained in a cell culture incubator at 37° C. with 5% CO2.
In primary brown adipocytes on d 8 of differentiation, values of OCR were measured in the presence or absence of compounds using a Seahorse XF96 extracellular flux analyzer (Agilent Technologies; Santa Clara, CA). […] OCR values were measured before and after the exposure of cells to NE (1 μM) and normalized with total live cell count calculated through staining with NucRed Live probe (Thermo Fisher; Waltham, MA) measured at 715 nm emission and 623 nm excitation using a SpectraMax i3X plate reader (Molecular Devices; San Jose; CA).

[8] = target: T3, recombinant His-tagged human Them1 (Homo sapiens, UniProt Q8WXI4); experiment: Assay for reversibility of Them1 inhibition (dialysis); format: biochemical; conditions: compounds […], C14-CoA 25 μM, 18 h dialysis
T3 construct: Reaction labeling recombinant full-length Them1; made in house; host or cells: E. coli Shuffle T7
T3 sequence (Q8WXI4 14-594 isoform Q8WXI4-2 limits assumed): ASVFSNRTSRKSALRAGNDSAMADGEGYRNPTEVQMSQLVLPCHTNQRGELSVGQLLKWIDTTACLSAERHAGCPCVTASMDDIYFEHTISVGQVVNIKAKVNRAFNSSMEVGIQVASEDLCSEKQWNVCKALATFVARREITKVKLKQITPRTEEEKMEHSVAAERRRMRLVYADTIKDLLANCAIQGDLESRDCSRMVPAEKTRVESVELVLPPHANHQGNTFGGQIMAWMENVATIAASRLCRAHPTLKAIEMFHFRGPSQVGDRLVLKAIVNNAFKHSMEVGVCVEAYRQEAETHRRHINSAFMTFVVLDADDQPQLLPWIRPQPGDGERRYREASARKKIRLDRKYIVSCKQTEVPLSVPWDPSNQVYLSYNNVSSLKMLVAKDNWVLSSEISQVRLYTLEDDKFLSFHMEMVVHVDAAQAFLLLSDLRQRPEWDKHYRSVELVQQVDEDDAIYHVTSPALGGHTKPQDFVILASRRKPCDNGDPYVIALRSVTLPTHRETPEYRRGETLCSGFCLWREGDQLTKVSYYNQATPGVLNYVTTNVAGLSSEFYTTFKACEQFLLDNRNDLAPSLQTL
Protocol: Three buffer changes were performed over the extent of the 18 h dialysis. Post-dialysis reactions were incubated with fresh C14-CoA (25 μM) for 60 min at 22° C. Ebselen (Sigma Aldrich; St. Louis, MO) was used as a (−) control.

[9] = target: T4, recombinant human Them1 (Homo sapiens, UniProt Q8WXI4); experiment: Acot activity assay (fluorometric, C14-CoA), inhibition of Them1; format: biochemical; conditions: in words
T4 construct: Reaction labeling recombinant full-length Them1; made in house; host or cells: E. coli Shuffle T7
T4 sequence (Q8WXI4 14-594 isoform Q8WXI4-2 limits assumed): T3 sequence (Q8WXI4 14-594 isoform Q8WXI4-2 limits assumed)
Protocol: Human Them1 consists of two splice variants (Them1a and Them1b) that are distinguished by an additional 13 amino acids at the C-terminus of the ‘a’ isoform (Adams et al., 2001). […] Sufficient quantities of recombinant Them1 required for the HTS were obtained as a service of the University of Georgia Bioexpression and Fermentation Core Facility (Athens, GA). […] Purity of recombinant Them1 was analyzed by SDS-PAGE followed by Coomassie Brilliant Blue staining. The concentration of recombinant Them1 was determined according to the molar extinction coefficient at 280 nm, which was calculated based on the amino acid sequence (www.expasy.org). Single use aliquots of recombinant Them1 were stored at −80° C. until use to prevent protein precipitation during purification. The pH values of all buffers were adjusted to remain at least two units removed from the pI of recombinant Them1.

[10] = target: T5, full-length Them1 (Homo sapiens, UniProt Q8WXI4); experiment: Microscale thermophoresis binding, full-length Them1; conditions: in words
T5 sequence (Q8WXI4 14-594 isoform Q8WXI4-2 limits assumed): T3 sequence (Q8WXI4 14-594 isoform Q8WXI4-2 limits assumed)
Protocol: as §3, §2

[11] = target: T6, Them1 START domain (Homo sapiens, UniProt Q8WXI4); experiment: Microscale thermophoresis binding, START domain; conditions: in words
T6 sequence (Q8WXI4 339-594 isoform Q8WXI4-2): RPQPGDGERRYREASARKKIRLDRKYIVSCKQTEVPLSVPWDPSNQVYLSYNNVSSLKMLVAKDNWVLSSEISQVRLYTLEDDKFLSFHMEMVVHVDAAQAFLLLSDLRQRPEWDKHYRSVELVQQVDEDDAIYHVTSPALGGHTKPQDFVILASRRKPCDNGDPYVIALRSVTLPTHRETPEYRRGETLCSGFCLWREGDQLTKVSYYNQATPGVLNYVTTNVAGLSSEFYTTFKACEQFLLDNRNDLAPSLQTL
Description: A synthetic gene encoding the START domain was cloned into a pNIC28-Bsa4 bacterial expression vector (Novagen, EMD Biosciences; Madison, WI), which introduced an in-frame N-terminal His6 fusion containing a tobacco etch virus protease cleavage site to facilitate tag removal. The pNIC28-Bsa4-START domain plasmid was co-transformed into E. coli BL21 (DE3) (New England Biolabs; Ipswich, MA) competent cells with a pG-Tf2 vector (encoding groES-gorEL-tig chaperones) and then grown to an A600 of 0.5-0.7 in terrific broth. Under conditions of shaking (250 rpm) at 18° C., chaperones were induced by the addition of 5 ng/mL tetracycline HCl for 60 min followed by START domain induction upon the addition of 0.5 mM isoproyl β-D-thiogalactoside for ˜18 h. The bacteria were harvested by centrifugation, and then lysed by sonication with 20 mM Tris-Cl (pH 7.4), 500 mM NaCl, 25 mM imidazole, 5% glycerol, lysozyme, Dnase A, 0.1% Triton X-100, 5 mM β-mercaptoethanol and 100 μM phenylmethylsulfonyl fluoride. Following centrifugation of the bacterial lysate, recombinant START was purified by FPLC using a His affinity column (HisTrap HP column; GE Healthcare; Waukesha, WI). The soluble fraction containing recombinant START was applied to the column after equilibration with 20 mM Tris-Cl (pH 7.4), 500 mM NaCl, 25 mM imidazole and 5% glycerol, and then washed with the same buffer. Recombinant START was eluted from the HisTrap HP column using 20 mM Tris-Cl (pH 7.4), 500 mM NaCl, 500 mM imidazole and 5% glycerol followed by tobacco etch virus protease-mediated His-tag cleavage at 4° C. overnight with simultaneous dialysis into 20 mM Tris-Cl (pH 7.4), 500 mM NaCl and 5% glycerol. Recombinant START was further purified using a Superdex column (HiLoad 16/60 Superdex 75 column; GE Healthcare; Waukesha, WI) in 20 mM Tris-Cl (pH 7.4), 500 mM NaCl and 5% glycerol. Assessment of purity, protein concentration and storage of single use aliquots of recombinant START were performed as described above for recombinant Them1.
Reaction labeling recombinant full-length Them1, Them1l-ΔSTART, START or Acot12 with Monolith RED-Tris-NTA (NanoTemper Technologies; San Francisco, CA) were performed according to the manufacturer's instructions in buffer containing PBS plus 0.5% Tween-20 for 60 min at 22° C. with a molar dye: protein ratio=1:1. […] Working concentrations of compounds were prepared by diluting in microscale thermophoresis buffer. […] Fluorescence was measured using a Monolith NT.115 instrument (NanoTemper Technologies; San Francisco, CA) at 22° C. with instrument parameters adjusted to 40% LED power and medium microscale thermophoresis power. […]

[12] = target: T5, full-length Them1; experiment: biochemical
Protocol: as §3, §2

full-length human Acot12, sequence (Q8WYK0 whole entry): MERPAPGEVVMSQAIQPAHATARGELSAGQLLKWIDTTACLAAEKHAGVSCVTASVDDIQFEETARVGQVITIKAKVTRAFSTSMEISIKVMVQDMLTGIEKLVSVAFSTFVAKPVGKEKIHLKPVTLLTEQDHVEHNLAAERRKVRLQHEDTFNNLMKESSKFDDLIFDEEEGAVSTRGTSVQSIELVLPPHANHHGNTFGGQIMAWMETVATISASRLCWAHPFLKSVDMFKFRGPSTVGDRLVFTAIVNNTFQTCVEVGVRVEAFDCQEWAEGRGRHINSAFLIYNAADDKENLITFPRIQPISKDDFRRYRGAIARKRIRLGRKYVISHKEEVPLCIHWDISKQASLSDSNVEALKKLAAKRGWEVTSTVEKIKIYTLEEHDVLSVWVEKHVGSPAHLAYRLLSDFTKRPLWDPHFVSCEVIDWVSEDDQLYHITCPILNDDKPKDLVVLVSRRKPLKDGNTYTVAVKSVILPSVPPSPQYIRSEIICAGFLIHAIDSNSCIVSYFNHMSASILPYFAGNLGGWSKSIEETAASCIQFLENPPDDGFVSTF

SMILES	pKd [1]	glucose production in L-Them1Tg hepatocytes [2]	OCR following palmitate stimulation in L-Them1Tg hepatocytes [3]	OCR following palmitate stimulation in Them1−/− hepatocytes [3]	binding to Them1-ΔSTART [4]	pKd [4]	inhibition of mouse Them1 activity compared to human Them1 [5]	CC50 at 48 h [6] [µM]	OCR in A-Them1Tg brown adipocytes, reversal of Them1 suppression ([7]; NE-stimulated, compounds at 10 μM (FIGS. 3B-C, 8B-C))	Them1 activity after overnight dialysis (reversibility of inhibition) [8]	IC50 value compared to the parent U1 compound [9]	Kd / binding affinity to full-length Them1 compared to the parent U1 compound [10]	binding affinity to the START domain compared to the parent U1 compound [11]	OCR in A-Them1Tg brown adipocytes, reversal of Them1 suppression ([7]; compounds at their in vitro IC50 concentrations, 30 min, NE 1 μM, vs wild type (DMSO))	pKd [12]
CCOC(=O)N1CCN(C(c2cccs2)c2c(C)[nH]c3ccccc23)CC1 (stereo not drawn) [Compound U1, ethyl 4-((2-methyl-1H-indol-3-yl)(thiophen-2-yl)methyl)piperazine-1-carboxylate]	< 3.90	reduced	reversed this suppressive effect of Them1	did not increase OCR values	lacked the capacity to bind; also recorded: lacked binding	< 3.90	comparable potencies	> 125	reversed the suppressive effects of Them1 activity	restored Them1 activity					
Cc1[nH]c2ccccc2c1C(c1cccs1)N1CCN(c2ccccc2)CC1 (stereo not drawn) [Compound U4]								> 125			comparable	comparable			
Cc1[nH]c2ccccc2c1C(c1cccs1)N1CCN(C(=O)C(C)C)CC1 (stereo not drawn) [Compound U11, 2-methyl-1-(4-((2-methyl-1H-indol-3-yl)(thiophen-2-yl)methyl)piperazin-1-yl)propan-1-one]	< 3.90				did not bind	< 3.90		> 125				tighter	tighter	reversed the suppressive effects of Them1 on values of OCR	6.06

Reference: patent US20230286955A1, “INHIBITORS OF THEM1” (Cornell University, priority 2022, published 2023)
